Source: the supplement of paper PMC4380931

Columns and labels:
Assay in all cases: apoptotic fraction of cells (caspase-3 NucView488 positive); higher = more apoptosis
K2 = test system: K2
Experimental: (§1)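 BRAF V600E/D melanoma cell lines were seeded in 96-well plates, treated in 4 replicates with seven doses (3.16 nM to 3.16 uM) of RAF/MEK inhibitors for 24, 48 or 72 h, and stained with Hoechst 33342 (nuclei) and DEVD-NucView488 caspase-3 substrate. Plates were imaged on an Operetta. Relative viability is the cell count normalised to a DMSO-treated control; apoptosis fraction is the fraction of NucView488-positive nuclei.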

MZ7MEL = test system: MZ7MEL
Experimental: as §1

WM1552C = test system: WM1552C
Experimental: as §1

LOXIMVI = test system: LOXIMVI
Experimental: as §1

WM115 = test system: WM115
Experimental: as §1

SKMEL28 = test system: SKMEL28
Experimental: as §1

MMACSF = test system: MMACSF
Experimental: as §1

CCCS(=O)(=O)Nc1ccc(F)c(C(=O)c2c[nH]c3ncc(Cl)cc23)c1F [PLX4720]
apoptotic fraction of cells
Settings	0.00316 µM	0.01 µM	0.0316 µM	0.1 µM	0.316 µM	1 µM	3.16 µM
K2, 24 h	0.00502	0.00388	0.00353	0.00321	0.00817	0.0503	0.153
K2, 48 h	0.00236	0.00224	0.00201	0.00525	0.0166	0.0858	0.173
LOXIMVI, 24 h	0.0547	0.0479	0.0396	0.0507	0.033	0.0507	0.0445
LOXIMVI, 48 h	0.111	0.0809	0.0585	0.0482	0.0482	0.0654	0.113
LOXIMVI, 72 h	0.211	0.144	0.074	0.0395	0.048	0.0542	0.159
MMACSF, 24 h	0.0449	0.0443	0.0397	0.0422	0.0417	0.0492	0.0464
MMACSF, 48 h	0.0462	0.0457	0.0434	0.0443	0.0469	0.0555	0.0933
MMACSF, 72 h	0.0394	0.0424	0.0386	0.0346	0.0549	0.218	0.534
MZ7MEL, 24 h	0.013	0.0082	0.01	0.00501	0.00918	0.0127	0.0325
MZ7MEL, 48 h	0.0158	0.0193	0.0129	0.0113	0.0205	0.0277	0.0483
MZ7MEL, 72 h	0.0184	0.0171	0.0142	0.0198	0.0439	0.105	0.151
SKMEL28, 48 h	0.0324	0.0306	0.0349	0.035	0.0365	0.0401	0.0568
SKMEL28, 72 h	0.0401	0.0409	0.0321	0.0301	0.0373	0.0372	0.105
WM115, 24 h	0.0488	0.0373	0.0513	0.0369	0.0371	0.0643	0.0673
WM115, 48 h	0.0421	0.0454	0.0356	0.0312	0.0333	0.0466	0.122
WM115, 72 h	0.0312	0.0316	0.0268	0.0303	0.0415	0.129	0.381
WM1552C, 24 h	0.0609	0.0582	0.0522	0.0708	0.0728	0.0756	0.0738
WM1552C, 48 h	0.0618	0.0656	0.0655	0.0534	0.044	0.0563	0.0762
WM1552C, 72 h	0.0768	0.0708	0.0682	0.063	0.0671	0.0953	0.129

Cc1ccc(NC(=O)c2cccc(C(C)(C)C#N)c2)cc1Nc1ccc2ncn(C)c(=O)c2c1 [AZ628]
apoptotic fraction of cells
Settings	0.00316 µM	0.01 µM	0.0316 µM	0.1 µM	0.316 µM	1 µM	3.16 µM
K2, 24 h	0.00396	0.003	0.00276	0.00598	0.0287	0.117	0.135
K2, 48 h	0.00258	0.00301	0.00475	0.0219	0.0649	0.254	0.358
LOXIMVI, 24 h	0.0535	0.0347	0.0365	0.0586	0.0296	0.0677	0.0554
LOXIMVI, 48 h	0.0814	0.0536	0.0416	0.0479	0.063	0.118	0.163
LOXIMVI, 72 h	0.139	0.104	0.0405	0.0836	0.117	0.211	0.497
MMACSF, 24 h	0.0452	0.0505	0.0425	0.0308	0.0456	0.0524	0.0606
MMACSF, 48 h	0.0483	0.0434	0.0445	0.0497	0.0653	0.159	0.25
MMACSF, 72 h	0.0431	0.0411	0.0335	0.083	0.226	0.465	0.62
MZ7MEL, 24 h	0.0132	0.0129	0.0104	0.00814	0.0204	0.032	0.0453
MZ7MEL, 48 h	0.0137	0.0171	0.0173	0.0263	0.0421	0.0561	0.0749
MZ7MEL, 72 h	0.0208	0.0145	0.0428	0.156	0.236	0.265	0.293
SKMEL28, 48 h	0.04	0.0326	0.032	0.0352	0.0404	0.063	0.09
SKMEL28, 72 h	0.0319	0.028	0.0262	0.0319	0.0526	0.107	0.142
WM115, 24 h	0.0464	0.0415	0.0535	0.0496	0.0725	0.135	0.202
WM115, 48 h	0.0302	0.0498	0.0357	0.0517	0.139	0.311	0.379
WM115, 72 h	0.0295	0.0285	0.0418	0.159	0.419	0.644	0.82
WM1552C, 24 h	0.0672	0.0724	0.0622	0.0716	0.0799	0.0776	0.104
WM1552C, 48 h	0.0725	0.0688	0.0702	0.0329	0.0464	0.0857	0.108
WM1552C, 72 h	0.0855	0.0732	0.0827	0.0883	0.134	0.153	0.172

CN(C)CCOc1ccc(-c2nc(-c3ccncc3)c(-c3ccc4c(c3)CC/C4=N\O)[nH]2)cc1
apoptotic fraction of cells
Settings	0.00316 µM	0.01 µM	0.0316 µM	0.1 µM	0.316 µM	1 µM	3.16 µM
K2, 24 h	0.00595	0.00244	0.00221	0.00264	0.0035	0.0129	0.0372
K2, 48 h	0.00193	0.00284	0.00174	0.00423	0.00888	0.0309	0.0801
LOXIMVI, 24 h	0.0512	0.0389	0.0361	0.0658	0.0417	0.0511	0.0461
LOXIMVI, 48 h	0.143	0.0806	0.0671	0.0471	0.0374	0.0404	0.0453
LOXIMVI, 72 h	0.253	0.188	0.135	0.0607	0.0478	0.0458	0.0628
MMACSF, 24 h	0.0448	0.0421	0.0446	0.0491	0.0475	0.048	0.0414
MMACSF, 48 h	0.0482	0.0408	0.041	0.0486	0.0567	0.0889	0.0951
MMACSF, 72 h	0.0417	0.0427	0.0345	0.0358	0.0666	0.155	0.224
MZ7MEL, 24 h	0.0126	0.0117	0.0102	0.0118	0.0151	0.0236	0.0357
MZ7MEL, 48 h	0.0138	0.019	0.0145	0.0141	0.0253	0.0408	0.0727
MZ7MEL, 72 h	0.017	0.0127	0.0173	0.0271	0.0568	0.0967	0.143
SKMEL28, 48 h	0.0386	0.034	0.0305	0.0338	0.042	0.0432	0.0466
SKMEL28, 72 h	0.0377	0.0332	0.0271	0.0305	0.0316	0.0381	0.259
WM115, 24 h	0.0434	0.0337	0.0512	0.0473	0.0461	0.0874	0.0958
WM115, 48 h	0.047	0.0376	0.0402	0.0491	0.0688	0.101	0.131
WM115, 72 h	0.0298	0.031	0.0346	0.0452	0.0689	0.144	0.158
WM1552C, 24 h	0.059	0.05804	0.0561	0.0693	0.0643	0.0626	0.0608
WM1552C, 48 h	0.075	0.0725	0.0713	0.067	0.0576	0.0631	0.0655
WM1552C, 72 h	0.0862	0.0741	0.0679	0.0654	0.0685	0.0776	0.113
